Measured values taken from PubChem BioAssay (NCI).
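Where inhibition never reached the appropriate level, the endpoint shown equals the highest concentration tested. Otherwise, values were interpolated linearly from a five-concentration, 48-hour dose response in 96-well plates. GI50 marks 50% less growth. TGI denotes the concentration required for complete inhibition of growth.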

Tests used:
Experiment in all cases: NCI anticancer screen, dose series, 48 h
EKVX NSCLC = tested on: EKVX NSCLC
OVCAR-3 ovarian = tested on: OVCAR-3 ovarian
OVCAR-4 ovarian = tested on: OVCAR-4 ovarian
HL-60(TB) leukemia = tested on: HL-60(TB) leukemia
NCI-H226 lung = tested on: NCI-H226 lung
SK-MEL-28 melanoma = tested on: SK-MEL-28 melanoma
HOP-92 NSCLC = tested on: HOP-92 NSCLC
M14 melanoma = tested on: M14 melanoma
RXF 393 renal = tested on: RXF 393 renal
LOX IMVI melanoma = tested on: LOX IMVI melanoma
HT29 colon = tested on: HT29 colon
IGROV1 ovarian = tested on: IGROV1 ovarian
OVCAR-5 ovarian = tested on: OVCAR-5 ovarian
SK-MEL-2 melanoma = tested on: SK-MEL-2 melanoma
DU-145 prostate = tested on: DU-145 prostate
BT-549 breast = tested on: BT-549 breast
UACC-62 melanoma = tested on: UACC-62 melanoma
SNB-19 CNS = tested on: SNB-19 CNS
MDA-MB-435 = tested on: MDA-MB-435
KM12 colon = tested on: KM12 colon
K-562 leukemia = tested on: K-562 leukemia
HS 578T breast = tested on: HS 578T breast
SK-MEL-5 melanoma = tested on: SK-MEL-5 melanoma
UACC-257 melanoma = tested on: UACC-257 melanoma
HCT-15 colon = tested on: HCT-15 colon
NCI-H460 lung = tested on: NCI-H460 lung
SNB-75 CNS = tested on: SNB-75 CNS
SF-268 CNS = tested on: SF-268 CNS
HCC-2998 colon = tested on: HCC-2998 colon
MALME-3M melanoma = tested on: MALME-3M melanoma
NCI-H23 lung = tested on: NCI-H23 lung
HCT-116 colon = tested on: HCT-116 colon
MDA-MB-231 breast = tested on: MDA-MB-231 breast
OVCAR-8 ovarian = tested on: OVCAR-8 ovarian
SF-539 CNS = tested on: SF-539 CNS
RPMI-8226 leukemia = tested on: RPMI-8226 leukemia
CCRF-CEM leukemia = tested on: CCRF-CEM leukemia
HOP-62 NSCLC = tested on: HOP-62 NSCLC
SW-620 colon = tested on: SW-620 colon
U251 CNS = tested on: U251 CNS
PC-3 prostate = tested on: PC-3 prostate
SK-OV-3 ovarian = tested on: SK-OV-3 ovarian
MCF7 breast = tested on: MCF7 breast
A498 renal = tested on: A498 renal
CAKI-1 renal = tested on: CAKI-1 renal
NCI/ADR-RES ovarian = tested on: NCI/ADR-RES ovarian
SR leukemia = tested on: SR leukemia
786-0 renal = tested on: 786-0 renal
NCI-H522 lung = tested on: NCI-H522 lung
TK-10 renal = tested on: TK-10 renal
MOLT-4 leukemia = tested on: MOLT-4 leukemia
ACHN renal = tested on: ACHN renal
UO-31 renal = tested on: UO-31 renal
SN12C renal = tested on: SN12C renal
SF-295 CNS = tested on: SF-295 CNS
T-47D breast = tested on: T-47D breast
A549 NSCLC = tested on: A549 NSCLC
COLO 205 colon = tested on: COLO 205 colon

O=C1NC(=O)/C(=C/c2ccc3nccc(-c4ccncc4)c3c2)S1
GI50 (EKVX NSCLC): 0.407 µM | TGI (EKVX NSCLC): 3.67 µM | GI50 (OVCAR-3 ovarian): 0.252 µM | TGI (OVCAR-3 ovarian): 2.07 µM | GI50 (OVCAR-4 ovarian): 0.503 µM | TGI (OVCAR-4 ovarian): 5.89 µM | GI50 (HL-60(TB) leukemia): 0.325 µM | TGI (HL-60(TB) leukemia): > 6.77 µM | GI50 (NCI-H226 lung): 0.239 µM | TGI (NCI-H226 lung): 2.76 µM | GI50 (SK-MEL-28 melanoma): 0.237 µM | TGI (SK-MEL-28 melanoma): 2.29 µM | GI50 (HOP-92 NSCLC): 0.0806 µM | TGI (HOP-92 NSCLC): 0.494 µM | GI50 (M14 melanoma): 0.365 µM | TGI (M14 melanoma): 2.79 µM | GI50 (RXF 393 renal): 0.251 µM | TGI (RXF 393 renal): 1.3 µM | GI50 (LOX IMVI melanoma): 0.247 µM | TGI (LOX IMVI melanoma): 2.73 µM | GI50 (HT29 colon): 0.423 µM | TGI (HT29 colon): 6.29 µM | GI50 (IGROV1 ovarian): 0.117 µM | TGI (IGROV1 ovarian): 0.612 µM | GI50 (OVCAR-5 ovarian): 0.326 µM | TGI (OVCAR-5 ovarian): 3.89 µM | GI50 (SK-MEL-2 melanoma): 0.438 µM | TGI (SK-MEL-2 melanoma): 2.25 µM | GI50 (DU-145 prostate): 0.431 µM | TGI (DU-145 prostate): > 5.79 µM | GI50 (BT-549 breast): 0.212 µM | TGI (BT-549 breast): 1.39 µM | GI50 (UACC-62 melanoma): 0.187 µM | TGI (UACC-62 melanoma): 1.3 µM | GI50 (SNB-19 CNS): 0.429 µM | TGI (SNB-19 CNS): 5.93 µM | GI50 (MDA-MB-435): 0.402 µM | TGI (MDA-MB-435): > 7.25 µM | GI50 (KM12 colon): 0.817 µM | TGI (KM12 colon): > 10 µM | GI50 (K-562 leukemia): 1.89 µM | TGI (K-562 leukemia): > 10 µM | GI50 (HS 578T breast): 0.119 µM | TGI (HS 578T breast): 0.54 µM | GI50 (SK-MEL-5 melanoma): 0.419 µM | TGI (SK-MEL-5 melanoma): 1.63 µM | GI50 (UACC-257 melanoma): 0.528 µM | TGI (UACC-257 melanoma): 5.22 µM | GI50 (HCT-15 colon): 0.292 µM | TGI (HCT-15 colon): > 5.08 µM | GI50 (NCI-H460 lung): 0.487 µM | TGI (NCI-H460 lung): > 10 µM | GI50 (SNB-75 CNS): 0.0518 µM | TGI (SNB-75 CNS): 0.448 µM | GI50 (SF-268 CNS): 0.346 µM | TGI (SF-268 CNS): 5.15 µM | GI50 (HCC-2998 colon): 0.35 µM | TGI (HCC-2998 colon): 3.89 µM | GI50 (MALME-3M melanoma): 0.288 µM | TGI (MALME-3M melanoma): 2.12 µM | GI50 (NCI-H23 lung): 0.633 µM | TGI (NCI-H23 lung): > 6 µM | GI50 (HCT-116 colon): 0.466 µM | TGI (HCT-116 colon): > 5.61 µM | GI50 (MDA-MB-231 breast): 0.387 µM | TGI (MDA-MB-231 breast): 3.92 µM | GI50 (OVCAR-8 ovarian): 0.517 µM | TGI (OVCAR-8 ovarian): > 10 µM | GI50 (SF-539 CNS): 0.294 µM | TGI (SF-539 CNS): 1.58 µM | GI50 (RPMI-8226 leukemia): 1.19 µM | TGI (RPMI-8226 leukemia): 6.75 µM | GI50 (CCRF-CEM leukemia): 0.495 µM | TGI (CCRF-CEM leukemia): > 10 µM | GI50 (HOP-62 NSCLC): 0.359 µM | TGI (HOP-62 NSCLC): 4.26 µM | GI50 (SW-620 colon): 0.517 µM | TGI (SW-620 colon): > 10 µM | GI50 (U251 CNS): 0.261 µM | TGI (U251 CNS): 2.23 µM | GI50 (PC-3 prostate): 0.282 µM | TGI (PC-3 prostate): 2.9 µM | GI50 (SK-OV-3 ovarian): 0.201 µM | TGI (SK-OV-3 ovarian): 0.918 µM | GI50 (MCF7 breast): 0.164 µM | TGI (MCF7 breast): > 10 µM | GI50 (A498 renal): 0.0335 µM | TGI (A498 renal): 0.208 µM | GI50 (CAKI-1 renal): 0.289 µM | TGI (CAKI-1 renal): 2.04 µM | GI50 (NCI/ADR-RES ovarian): 0.885 µM | TGI (NCI/ADR-RES ovarian): > 10 µM | GI50 (SR leukemia): 0.547 µM | TGI (SR leukemia): 4.88 µM | GI50 (786-0 renal): 0.345 µM | TGI (786-0 renal): 3.15 µM | GI50 (NCI-H522 lung): 0.23 µM | TGI (NCI-H522 lung): 1.81 µM | GI50 (TK-10 renal): 0.197 µM | TGI (TK-10 renal): 1.24 µM | GI50 (MOLT-4 leukemia): 0.645 µM | TGI (MOLT-4 leukemia): 9.91 µM | GI50 (ACHN renal): 0.469 µM | TGI (ACHN renal): 8.39 µM | GI50 (UO-31 renal): 0.14 µM | TGI (UO-31 renal): 1.05 µM | GI50 (SN12C renal): 0.396 µM | TGI (SN12C renal): > 10 µM | GI50 (SF-295 CNS): 0.356 µM | TGI (SF-295 CNS): 2.13 µM | GI50 (T-47D breast): 0.0497 µM | TGI (T-47D breast): 0.432 µM | GI50 (A549 NSCLC): 0.61 µM | TGI (A549 NSCLC): 5.24 µM | GI50 (COLO 205 colon): 0.454 µM | TGI (COLO 205 colon): 3.67 µM
